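48-hour exposure; five concentrations; linearly interpolated endpoints. TGI marks complete inhibition of growth.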
What was measured:
Experiment in all cases: growth of human tumour cells (NCI), 48 h
[1] = tested on: T-47D breast
[2] = tested on: NCI/ADR-RES ovarian
[3] = tested on: HS 578T breast
[4] = tested on: PC-3 prostate
[5] = tested on: BT-549 breast
[6] = tested on: MDA-N

In the case of `Nc1ccc(Oc2ccc(C3(c4ccc(Oc5ccc(N)c(O)c5)cc4)C4CC5CC(C4)CC3C5)cc2)cc1O`, the TGI [1] is reported as > 77.2 µM, the TGI [2] is reported as 5.91 µM and the TGI [3] is reported as 5.32 µM. For the same compound, the TGI [4] was 3.18 µM, the TGI [5] was 5.27 µM and the TGI [6] was 4.75 µM.

Source: PubChem BioAssay (NCI)
